Patent US20240024293A1, “NOMETHIAZOLES AS A TREATMENT FOR RETT SYNDROME” (REVIVO THERAPEUTICS, priority 2019, published 2024)
Counter-ions that a name gives are not always drawn.

Tests used:
Mecp2 female mice (HET) [1] = experiment: NeuroCube gait analysis in RETT mouse model; assay type: in vivo
Protocol: (§1) Experiments employed wild type (WT) mice and Mecp2 female mice (HET) that were provided by The Jackson Laboratory, Bar Harbor, ME.
(§2) Breeding of the experimental mice were done at The Jackson Laboratories and were shipped at approximately 5 weeks of age. Dosing experiments were conducted at approximately 6 weeks of age.
(§3) Treatment Groups (N=20) were as follow: • WT—Vehicle • HET—Vehicle • HET—RIV-0561 (1.35 mg/kg; ip QD)+0.675 mg/ml of RIV-0561 in drinking water • HET—RIV-0561 (13.5 mg/kg; ip QD)+0.675 mg/ml of RIV-0561 in drinking water
(§4) NeuroCube® and Startle experiments were conducted when mice were at 8 and 12 weeks of age. All tests were conducted within 2 hours post IP dosing.
NeuroCube® system is a proprietary gait analysis system. The platform employs computer vision to detect changes in gait geometry and gait dynamics in rodent models of neurological disorders, pain, and neuropathies. This platform is unique for gait testing for the following reasons: (1) it is completely automated and thus removes any bias or subjectivity; (2) the system captures both gait geometry and gait dynamics (stance, swing, propulsion, etc.); and (3) the sensitivity of the computer vision and bioinformatics allow the capture of symptoms of the disease model earlier and more accurately.
Mice are placed in the NeuroCube® for a 5-min test. The most dominant features that define the disease phenotype (symptom descriptors) are identified and ranked. Complex bioinformatics algorithms are employed to calculate the discrimination probability between WT and HET mice and can thus detect a test compound's ability to reverse the disease phenotype.

Mecp2 female mice (HET) [2] = experiment: Acoustic startle response in RETT mouse model; assay type: in vivo; details: HET mice at 8 weeks of age; all doses tested (1.35 or 13.5 mg/kg ip QD + 0.675 mg/ml in drinking water); FIG. 2
Protocol: as §1, §2, §3, §4
The acoustic startle measures an unconditioned reflex response to external auditory stimulation. Mice were placed in the startle enclosures and secured in the sound-attenuated startle chamber (Med Associates Inc., St Albans, VT) on top of a force transducer plate that measures the force of the movements made by the mouse for a 5 min habituation period of white noise (70 dB). Subsequent test sessions consisted of 10 blocks of eleven trials each. Within each block, stimuli of 70, 75, 80, 85, 90, 95, 100, 105, 110, 115, and 120 dB were presented in a random order with a variable inter-trial interval of mean 15 sec (10-20 sec). […] Responses were recorded for 150 ms from startle onset and were sampled every ms. […]

[3] = Gait features at 12 weeks, HET mice, dose not given

Cc1ncsc1CCO[N+](=O)[O-] [RIV-5061, 2-(4-methylthiazol-5-yl)ethyl nitrate maleate]
% Recovery, Body Motion (Mecp2 female mice (HET) [1]; [3]): 19%
% Recovery, Gait Dynamic and Geometry (Mecp2 female mice (HET) [1]; [3]): 53%
% Recovery, Overall Gait (Mecp2 female mice (HET) [1]; [3]): 24%
% Recovery, Paw Features (Mecp2 female mice (HET) [1]; [3]): 63%
% Recovery, Paw Positioning (Mecp2 female mice (HET) [1]; [3]): 17%
% Recovery, Rhythmicity (Mecp2 female mice (HET) [1]; [3]): 0%
Improvement of important gait features (up to) (Mecp2 female mice (HET) [1]; RETT mice, after 12 weeks of treatment, particularly at the lower dose (1.35 mg/kg IP daily + 0.675 mg/ml in drinking water)): > 60%
Startle response (Mecp2 female mice (HET) [2]): tendency to improve startle response
